Data from patent publication US10660967B2, “Curcumin conjugates and methods of use thereof” (priority 2016, dated 2020).

System: carrageenan induced paw edema
Test: Anti-inflammatory activity: acute carrageenan induced paw edema in rats
Type: in vivo, Wister rats
Conditions: 10 mg kg^−1 indomethacin mol equivalent; for % inhibition of edema / Mean edema thickness: intraperitoneally; for Mean edema thickness: mean ± SE; for Potency (% inhibition of edema relative to that of indomethacin reference standard): at 4 h effect
Protocol: The anti-inflammatory activity of the tested compounds was determined in vivo by the acute carrageenan induced paw edema standard method in rats. See, Naumov, et al., Bioorg. Med. Chem. Lett, 25: 2314-2320 (2015), Tiwari, et al., Org. Biomol. Chem, 12: 7238-7249 (2014), Girgis, et al., Eur. J. Med. Chem, 50: 1-8 (2012), Barsoum, et al., Eur. J. Med. Chem, 44: 2172-2177 (2009), Girgis, et al., Eur. J. Med. Chem, 44: 1972-1977 (2009), Girgis, et al., Eur. J. Med. Chem, 44: 1257-1264 (2009), Girgis, et al., Eur. J. Med. Chem, 44: 91-100 (2009), Girgis, et al., Eur. J. Med. Chem, 43: 2116-2121 (2008), Girgis, et al., Bioorg. Med. Chem, 14: 8527-8532 (2006), and Barsoum, et al., Bioorg. Med. Chem, 14: 3929-3937 (2006).
Adult Wister rats of either sex (pregnant female animals were excluded) weighing 120-150 g were divided into 18 groups of 6 animals each. […] The control group was given DMSO only. Carrageenan paw edema was induced by subcutaneous injection of freshly prepared 1% solution of carrageenan in saline (0.9%, 0.1 ml per rat) into subplantar tissue of the right hind paw of rats. The thickness of the paw was measured (in mm) after successive time intervals (1, 2,3,4 and 24 h) and compared with the initial hind paw thickness of each rat for determining the edema thickness. Data were collected, checked, revised and analyzed. Quantitative variables from normal distribution were expressed as means±SE “standard error”. The anti-inflammatory activity was expressed as percentage inhibition of edema thickness in treated animals in comparison with the control group according to eqn. (1)
Where, Vc and Vt are the mean of edema paw thickness for the control and tested compound treated animal groups, respectively.

SMILES | % inhibition of edema (1 h) | Mean edema thickness (1 h) | % inhibition of edema (2 h) | Mean edema thickness (2 h) | % inhibition of edema (3 h) | Mean edema thickness (3 h) | % inhibition of edema (4 h) | Mean edema thickness (4 h) | % inhibition of edema (24 h) | Mean edema thickness (24 h) | Potency (% inhibition of edema relative to that of indomethacin reference standard)
COc1cc(/C=C/C(=O)CC(=O)/C=C/c2ccc(OC(=O)[C@@H](NC(=O)OCC3c4ccccc4-c4ccccc43)C(C)C)c(OC)c2)ccc1OC(=O)[C@@H](NC(=O)OCC1c2ccccc2-c2ccccc21)C(C)C [Compound 15] | 22% | 1.88 ± 0.22 mm | 49% | 1.05 ± 0.23 mm | 50% | 0.90 ± 0.17 mm | 53% | 0.66 ± 0.19 mm | 47% | 0.44 ± 0.11 mm | 61
COc1cc(/C=C/C(=O)CC(=O)/C=C/c2ccc(OC(=O)[C@H](CC(C)C)NC(=O)OCC3c4ccccc4-c4ccccc43)c(OC)c2)ccc1OC(=O)[C@H](CC(C)C)NC(=O)OCC1c2ccccc2-c2ccccc21 [Compound 16] | 40% | 1.45 ± 0.18 mm | 41% | 1.22 ± 0.25 mm | 48% | 0.93 ± 0.20 mm | 50% | 0.70 ± 0.19 mm | 40% | 0.50 ± 0.10 mm | 57
COc1cc(/C=C/C(=O)CC(=O)/C=C/c2ccc(OC(=O)[C@H](CCSC)NC(=O)OCC3c4ccccc4-c4ccccc43)c(OC)c2)ccc1OC(=O)[C@H](CCSC)NC(=O)OCC1c2ccccc2-c2ccccc21 [Compound 17] | 46% | 1.30 ± 0.04 mm | 73% | 0.56 ± 0.17 mm | 75% | 0.45 ± 0.18 mm | 98% | 0.03 ± 0.01 mm | 23% | 0.64 ± 0.02 mm | 113
COc1cc(/C=C/C(=O)CC(=O)/C=C/c2ccc(OC(=O)[C@H](Cc3ccccc3)NC(=O)OCC3c4ccccc4-c4ccccc43)c(OC)c2)ccc1OC(=O)[C@H](Cc1ccccc1)NC(=O)OCC1c2ccccc2-c2ccccc21 [Compound 18] | 10% | 2.17 ± 0.24 mm | 41% | 1.22 ± 0.16 mm | 54% | 0.82 ± 0.08 mm | 60% | 0.56 ± 0.04 mm | 5% | 0.79 ± 0.02 mm | 69
COc1cc(/C=C/C(=O)CC(=O)/C=C/c2ccc(OC(=O)[C@@H](C)NC(=O)OCc3ccccc3)c(OC)c2)ccc1OC(=O)[C@@H](C)NC(=O)OCc1ccccc1 [Compound 19] | 82% | 0.43 ± 0.08 mm | 89% | 0.23 ± 0.04 mm | 95% | 0.09 ± 0.03 mm | 100% | 0.00 ± 0.00 mm | 49% | 0.42 ± 0.06 mm | 115
COc1cc(/C=C/C(=O)CC(=O)/C=C/c2ccc(OC(=O)[C@@H](CCSC)NC(=O)OCc3ccccc3)c(OC)c2)ccc1OC(=O)[C@@H](CCSC)NC(=O)OCc1ccccc1 [Compound 20] | 79% | 0.51 ± 0.04 mm | 80% | 0.41 ± 0.03 mm | 85% | 0.27 ± 0.01 mm | 94% | 0.08 ± 0.02 mm | 90% | 0.08 ± 0.01 mm | 108
COc1cc(/C=C/C(=O)CC(=O)/C=C/c2ccc(OC(=O)[C@H](CCC(N)=O)NC(=O)OCc3ccccc3)c(OC)c2)ccc1OC(=O)[C@H](CCC(N)=O)NC(=O)OCc1ccccc1 [Compound 21] | 51% | 1.18 ± 0.11 mm | 47% | 1.09 ± 0.19 mm | 45% | 0.99 ± 0.09 mm | 44% | 0.78 ± 0.10 mm | 4% | 0.80 ± 0.05 mm | 51
COc1cc(/C=C/C(=O)CC(=O)/C=C/c2ccc(OC(=O)CNC(=O)OC(C)(C)C)c(OC)c2)ccc1OC(=O)CNC(=O)OC(C)(C)C [Compound 22] | 43% | 1.37 ± 0.18 mm | 44% | 1.16 ± 0.14 mm | 44% | 1.00 ± 0.11 mm | 48% | 0.73 ± 0.09 mm | 47% | 0.44 ± 0.05 mm | 55
COc1cc(/C=C/C(=O)CC(=O)/C=C/c2ccc(OC(=O)[C@H](Cc3ccccc3)NC(=O)OC(C)(C)C)c(OC)c2)ccc1OC(=O)[C@H](Cc1ccccc1)NC(=O)OC(C)(C)C [Compound 23] | 39% | 1.47 ± 0.16 mm | 44% | 1.16 ± 0.09 mm | 53% | 0.85 ± 0.11 mm | 59% | 0.58 ± 0.03 mm | 51% | 0.41 ± 0.02 mm | 68
COc1cc(/C=C/C(=O)CC(=O)/C=C/c2ccc(OC(=O)[C@H](C)NC(=O)OC(C)(C)C)c(OC)c2)ccc1OC(=O)[C@H](C)NC(=O)OC(C)(C)C [Compound 24] | 6% | 2.26 ± 0.20 mm | 11% | 1.84 ± 0.17 mm | 20% | 1.44 ± 0.14 mm | 28% | 1.04 ± 0.18 mm | 5% | 0.79 ± 0.17 mm | 32
COc1cc(/C=C/C(=O)CC(=O)/C=C/c2ccc(OC(=O)C(C)NC(=O)OC(C)(C)C)c(OC)c2)ccc1OC(=O)C(C)NC(=O)OC(C)(C)C (stereo not shown) [Compound 25] | 11% | 2.15 ± 0.14 mm | 16% | 1.74 ± 0.18 mm | 25% | 1.34 ± 0.20 mm | 40% | 0.84 ± 0.12 mm | 29% | 0.59 ± 0.09 mm | 46
